Results reported in US5236918A, “6-aryl-3-cyanaminopyridazines, their preparation and use and medicaments containing them” (BYK Gulden Lomberg Chemische Fabrik GmbH, priority 1989, dated 1993).
pEC50: −log10 of the molar value.

Key:
[1] = system: tracheal ring chain of the guinea-pig; experiment: bronchospasmolytic action on the tracheal ring chain of the guinea-pig in vitro (relaxation of stable tonic spontaneous contraction); type: cell-based; conditions: for pEC50: Cavia porcellus, EC50 in mol/l, 50% of the maximum relaxation achievable with (-)isoprenaline 10^-6 mol/l, spontaneous contraction, 37° C.; for [EC50]theophylline / [EC50]substance: quotient of EC50 values, theophylline = 1
Method: (§1) The bronchospasmolytic action of the compounds on the tracheal ring chain of the guinea-pig was tested in vitro as follows: Four parallel tracheal ring chains, each consisting of 6 individual rings, of the guinea-pig (female and male, 430-600 g), in an organ bath [5 ml, Krebs-Henseleit solution with addition of phentolamine (10^-5 mol/l), 37° C., pretension of the organs 2 g, gassing with carbogen] develop a stable, tonic spontaneous contraction after about 20 to 30 minutes. Relaxation can be brought about on these permanently contracted organs under isometric measurement conditions by application of the test substance in a cumulatively semi-logarithmically increasing concentration (e.g. 1×10^-6 +2×10^-6 +7×10^-6 +2×10^-5etc. mol/l), a constant relaxation response being awaited after each individual dose of the test substance before the next higher concentration is applied. A complete dose/effect curve of the test substance is thus obtained over a period of 20 to 30 minutes. The particular relaxation is expressed as the percentage fraction of the maximum relaxation which can be achieved by addition of (-)isoprenaline (10^-6 mol/l).

[2] = system: trachea (tracheal ring chain of the guinea-pig); experiment: trachea-relaxing action: relaxation of contractions generated by histamine, carbachol, prostaglandin, ovalbumin and leukotriene; type: cell-based; conditions: Cavia porcellus; read-out: trachea-relaxing action, contraction by OA (converted)
Method: as §1, with “mol/l). The concentration of the test substance which causes 50% of the maximum relaxation which can be achieved serves as a measure of the bronchodilatory activity, expressed by the negative logarithm of the EC50 mol/l: -log[EC50 ].” for “mol/l).”
The trachea-relaxing action of compounds 3 and 4 was additionally tested by relaxation of the contractions generated by histamine (His), carbachol (CC), prostaglandin (PGF2alpha), ovalbumin (OA) and leukotriene (LTC4).

[3] = system: histamine-induced bronchospasm; experiment: histamine-induced bronchospasm on the anaesthetized guinea-pig; type: in vivo
Method: The bronchospasmolytic action was furthermore determined on the model of "histamine-induced bronchospasm on the anaesthetized guinea-pig":
In this model, pharmacodynamic and toxic effects on internal sensitive receptors, on the respiration and on the cardiovascular system of guinea-pigs are recorded simultaneously [U. Kilian, E. Muller, E. Ch.
A histamine spasm before administration of the substance was compared with several histamine spasms after administration of the substance. The test substances were administered intravenously (i.v.) and/or intrajejunally (i.j.).

[4] = system: acetylcholine-induced bronchospasm; experiment: protective action against acetylcholine-induced bronchospasm on the conscious guinea-pig; type: in vivo; conditions: Cavia porcellus, 0.5 h; verum, oral, 100 μmol/kg, 30 minutes after administration; protected = latency period at least three times; read-out: Number of animals protected/number of animals used (converted)
Method: The bronchospasmolytic action was additionally tested on the model of "Protective action against acetylcholine-induced bronchospasm on the conscious guinea-pig":
Guinea-pigs (250-350 g) are exposed in a closed Plexiglas cylinder (volume 5 l) to an acetylcholine mist (0.06% in 0.9% sodium chloride solution; ultrasonic mister Heyer Use 77) twice before administration of the substance at an interval of 20 minutes, and 30 minutes after administration of the substance. The time from the start of misting to the onset of clear respiratory exertion (under certain circumstances hypoxic convulsions in the lateral position) is measured and defined as the latency period. A prolonging of the latency period after administration of the substance to at least three times the average latency period before administration of the substance is regarded as a protective action, and the number of protected animals in the group is stated. The test substances are administered orally by means of a stomach tube (dose 100 μmol/kg, volume 1 ml/kg, suspending agent 4% Methocel suspension in 0.9% sodium chloride solution).
The test substance is administered perorally by means of a stomach tube (standard dose 100 μmol, volume 1 ml 4% Methocel suspension in 0.9% sodium chloride solution/kg). After 30 minutes, the animals are exposed to the acetylcholine mist again and the latency periods are measured. Prolonging of the latency period to at least three times the length is regarded as a protective action.

PDE III = biological target: T1, PDE III (Homo sapiens, UniProt Q14432); experiment: inhibition of PDE III isolated from human platelets; type: biochemical; conditions: for [IC50]theophylline / [IC50]substance: PDE III, quotient of IC50 values, theophylline = 1; for IC50: human platelets, cAMP 0.5 μmol/l, 37° C., 20 minutes, read-out: -log[IC50] PDE III (converted)
T1 construct: PDE III isolated from human platelets; from tissue; host or cells: human platelets
Excerpt: (§2) The inhibition of phosphodiesterases of classes III (PDE III=high-affinity cAMP-PDE which can be inhibited by cGMP) and IV (PDE IV=high-affinity cAMP-PDE which cannot be inhibited by cGMP, Rolipram-sensitive) is regarded as being particularly conclusive for a bronchospasmolytic and/or antiinflammatory action which may be expected [H. Hidaka et al., Adv. Cycl. Nucl. Res. 13, 145 (1984); Tips 5, 237 (1984); R. Weishaar et al., J. Med. Chem. 28, 537 (1985); S. A. Harrison et al., Molec. Pharmac. 29, 506 (1986); J. Klein-Tebbe et al., Allergologie 12, 12 (1989); C. Schudt et al., Allergologie 12, 12 (1989)].
(§3) The PDE inhibition of the compounds according to the invention was therefore determined on a PDE III isolated from human platelets and PDE IV isolated from human neutrophilic polymorphonuclear cells (PMNs) and from the canine trachea. The phosphodiesterases III and IV are isolated by chromatography by the method of Polson et al., Biochem. Pharmacol. 31, 3403-3406 (1982).
(§4) The substances are dissolved in DMSO and diluted further. From a series of solutions diluted up to a hundred-fold, 2.1 μl portions are taken and 212 μl reaction mixture are added. The reaction mixture contains Hepes (100 mmol/l), DTE (5 mmol/l), MgCl2 (5 mmol/l), CaCl2 (10 μmol/l), BSA fraction V 0.5 mg/ml, cAMP 0.5 μmol/l, 2,8-^3 H-cAMP 250,000 cpm/ml (0.3 μCi/ml, s.a. 33.5 μCi/mmol) and SV (snake venom) (25 μg/212 μl test batch).
(§5) The reaction is started by addition of 10 μl PDE to the reaction mixture and to the substance batch. The mixtures are then incubated at 37° C. for 20 minutes. The reaction is stopped by heating at 95° C. for 45 seconds. After the samples have cooled, the SV solution is added, the 5-AMP formed being cleaved. After incubation for 30 minutes at 37° C., this reaction is stopped by addition of 1 ml anion exchanger suspension. The cAMP which remains is thereby bonded. The adenosine formed remains in the supernatant after centrifugation and can be measured in an aliquot by the radioactivity contained therein.

PDE IV [5] = experiment: inhibition of PDE IV from the canine trachea; type: biochemical; conditions: for [IC50]theophylline / [IC50]substance: PDE IV canine trachea, quotient of IC50 values, theophylline = 1; for -log[IC50] PDE IV canine trachea: cAMP 0.5 μmol/l, 37° C., 20 minutes
Excerpt: as §2, §3, §4, §5

PDE IV [6] = experiment: inhibition of PDE IV from human neutrophilic polymorphonuclear cells (PMNs); type: biochemical; conditions: for [IC50]theophylline / [IC50]substance: PDE IV human PMNs, quotient of IC50 values, theophylline = 1; for -log[IC50] PDE IV PNMs: human neutrophilic polymorphonuclear cells, cAMP 0.5 μmol/l, 37° C., 20 minutes
Excerpt: as §2, §3, §4, §5

[7] = i.j. (intrajejunal), 20 μmol/kg
[8] = i.j. (intrajejunal), 60 μmol/kg

T1 sequence (Q14432 whole entry): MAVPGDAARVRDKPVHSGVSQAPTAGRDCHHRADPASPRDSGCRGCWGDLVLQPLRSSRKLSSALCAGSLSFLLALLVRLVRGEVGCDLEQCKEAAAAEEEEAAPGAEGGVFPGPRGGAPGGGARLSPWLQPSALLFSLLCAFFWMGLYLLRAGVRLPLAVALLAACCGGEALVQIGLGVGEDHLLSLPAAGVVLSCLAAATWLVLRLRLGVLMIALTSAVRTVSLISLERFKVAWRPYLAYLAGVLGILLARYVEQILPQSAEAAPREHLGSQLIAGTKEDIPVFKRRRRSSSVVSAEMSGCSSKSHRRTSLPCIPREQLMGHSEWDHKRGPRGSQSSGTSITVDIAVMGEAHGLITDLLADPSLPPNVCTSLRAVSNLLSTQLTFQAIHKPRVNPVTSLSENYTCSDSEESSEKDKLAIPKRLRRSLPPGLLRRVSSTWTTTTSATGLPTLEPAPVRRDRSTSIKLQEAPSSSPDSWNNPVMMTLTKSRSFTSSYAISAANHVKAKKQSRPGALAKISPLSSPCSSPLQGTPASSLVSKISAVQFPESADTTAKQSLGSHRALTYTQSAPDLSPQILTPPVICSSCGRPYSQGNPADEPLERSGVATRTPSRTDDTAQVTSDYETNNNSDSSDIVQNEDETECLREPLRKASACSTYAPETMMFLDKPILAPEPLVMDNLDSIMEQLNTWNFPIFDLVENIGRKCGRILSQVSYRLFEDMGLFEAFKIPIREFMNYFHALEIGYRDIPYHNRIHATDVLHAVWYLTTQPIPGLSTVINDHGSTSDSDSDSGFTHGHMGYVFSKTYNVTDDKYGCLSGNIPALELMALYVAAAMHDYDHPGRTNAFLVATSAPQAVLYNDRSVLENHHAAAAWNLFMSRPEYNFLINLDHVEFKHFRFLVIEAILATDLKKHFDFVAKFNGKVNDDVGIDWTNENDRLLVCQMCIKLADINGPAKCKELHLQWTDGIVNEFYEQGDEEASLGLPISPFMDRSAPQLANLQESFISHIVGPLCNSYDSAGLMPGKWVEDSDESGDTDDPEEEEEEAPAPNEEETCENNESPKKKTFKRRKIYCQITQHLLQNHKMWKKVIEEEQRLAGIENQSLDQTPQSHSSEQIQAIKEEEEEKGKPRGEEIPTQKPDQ

Structure (SMILES)	pEC50 [1]	[EC50]theophylline / [EC50]substance [1]	EC50 [2]	Average percentage bronchospasmolytic action 0-1 h p. appl., % inhibition of the histamine-induced decrease in Vmaxe [3, 7]	Average percentage bronchospasmolytic action 0-1 h p. appl., % inhibition of the histamine-induced decrease in Vmaxe [3, 8]	Average percentage bronchospasmolytic action 0-1 h p. appl., % inhibition of the histamine-induced decrease in Vmaxe ([3]; i.v., 20 μmol/kg)	Average percentage bronchospasmolytic action 0-1 h p. appl., % inhibition of the histamine-induced decrease in Vmaxe ([3]; i.v., 60 μmol/kg)	responders at 100 µmol/kg [4]	[IC50]theophylline / [IC50]substance (PDE III)	IC50 (PDE III)	[IC50]theophylline / [IC50]substance (PDE IV [5])	-log[IC50] PDE IV canine trachea (PDE IV [5])	[IC50]theophylline / [IC50]substance (PDE IV [6])	-log[IC50] PDE IV PNMs (PDE IV [6])	Average percentage bronchospasmolytic action 0-1 h p. appl., % inhibition of the histamine-induced decrease in Vmaxe ([3]; i.j. (intrajejunal), 100 μmol/kg)	Average percentage bronchospasmolytic action 0-1 h p. appl., % inhibition of the histamine-induced decrease in Vmaxe ([3]; i.v., 100 μmol/kg)
COc1ccc(-c2ccc(NC#N)nn2)cc1OC(C)C [Compound 3, 3-Cyanamino-6-[4-methoxy-3-(1-methylethoxy)phenyl]pyridazine]	6.38	324	646 nM	29%	65%	28%	65%	70%	30.8	5.25 µM	82.2	5.75	117	5.82		
Cn1c(=O)c2[nH]cnc2n(C)c1=O [Theophylline, theophylline, reference compound]			288000 nM	11%	37%	13%	25%	30%				3.81		3.76	45%	34%
N#CNc1ccc(-c2ccc(OC(F)F)c(OCC(F)(F)F)c2)nn1 [Compound 20, 3-Cyanamino-6-[4-difluoromethoxy-3-(2,2,2-trifluoroethoxy)phenyl] pyridazine]	5.64	58.9						55%					148	5.93		
N#CNc1ccc(-c2ccc(OC(F)F)c(OCC3CC3)c2)nn1 [Compound 18, 3-Cyanamino-6-(3-cyclopropylmethoxy-4-difluoromethoxyphenyl)pyridazine]	6.25	240						50%					759	6.64		
CCOc1ccc(-c2ccc(NC#N)nn2)cc1OCC(C)C [Compound 13, 3-Cyanamino-6-[4-ethoxy-3-(2-methylpropoxy)phenyl]pyridazine]	6.27	251				28%		65%					263	6.18		
COc1ccc(-c2ccc(NC#N)nn2)cc1OCC(C)C [Compound 4, 3-Cyanamino-6-[4-methoxy-3-(2-methylpropoxy)phenyl]pyridazine]	6.95	1203	398 nM	39%	60%	37%	87%	85%	26.9	6.03 µM	355	6.36	357	6.33		
CCOc1cc(-c2ccc(NC#N)nn2)ccc1OC(F)F [Compound 12, 3-Cyanamino-6-(4-difluoromethoxy-3-ethoxyphenyl)pyridazine]	5.61	55.0				50%		70%			97.8	5.80				
CC(C)Oc1cc(-c2ccc(NC#N)nn2)ccc1OC(F)F [Compound 16, 3-Cyanamino-6-[4-difluoromethoxy-3-(1-methylethoxy)phenyl]pyridazine]	6.18	204						50%					550	6.50		
CCOc1ccc(-c2ccc(NC#N)nn2)cc1OC [Compound 7, 3-Cyanamino-6-(4-ethoxy-3-methoxyphenyl)pyridazine]	5.19	20.9							18.2	8.91 µM	32.4	5.32				
